Measurements taken from patent US20070027130A1, “Tricyclic 6-alkylidene-penem beta-lactamase inhibitors and beta-lactam antibiotic combination: a broad spectrum antibiotic” (priority 2005, published 2007).
Values after ≈ are worked out from the molar mass of the structure shown.

Legend:
Experiment in all cases: MIC microbroth dilution
Format in all cases: cell-based
[1] = system: E. coli LSU 80-8 GC 6265 TEM-1; details: Escherichia coli, read-out: MIC* (minimum inhibitory concentration)
How it was run: (§1)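 In vitro activity was measured by NCCLS broth microdilution in MHBII. Incubation ran at 35 C for 18-22 hours under ambient air.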

[2] = system: P. aeruginosa PT 9587 PTZ-R; details: Pseudomonas aeruginosa, PT9587PTZR; P. aeruginosa PT 9587, piperacillin-tazobactam-resistant; MHBII, 35° C. 18 hr; read-out: Minimal Inhibitory Concentration
How it was run: as §1

E. coli GC 6539 CMY-2 = details: Escherichia coli, GC6539CMY2, β-lactamase class C, MHBII, 35° C. 18 hr, read-out: Minimal Inhibitory Concentration
How it was run: as §1

[3] = system: P. aeruginosa PT 9236 PTZ-R; details: Pseudomonas aeruginosa, PT9236PTZR; P. aeruginosa PT 9236, piperacillin-tazobactam-resistant; MHBII, 35° C. 18 hr; read-out: Minimal Inhibitory Concentration
How it was run: as §1

[4] = system: E. coli GC 1695 (TEM-1 + TEM-10); details: Escherichia coli, β-lactamase class A, A (ESBL), MHBII, 35° C. 18 hr, read-out: Minimal Inhibitory Concentration
How it was run: as §1

[5] = system: E. coli GC 2021 (TEM-10 + pl 6.3); details: Escherichia coli, 18 h, read-out: Minimal Inhibitory Concentration
How it was run: as §1

E. coli GC 2805 (CcrA) = details: Escherichia coli, 18 h, read-out: Minimal Inhibitory Concentration
How it was run: as §1

E. coli GC 2300 (TEM-28) = details: Escherichia coli, β-lactamase class A (ESBL), MHBII, 35° C. 18 hr, read-out: Minimal Inhibitory Concentration
How it was run: as §1

[6] = system: S. marcescens PT 696 Inducible AmpC; details: Serratia marcescens, β-lactamase class C, MHBII, 35° C. 18 hr, read-out: Minimal Inhibitory Concentration
How it was run: as §1

[7] = system: E. coli GC 2015 (TEM-10 + SHV-1); details: Escherichia coli, β-lactamase class A, A (ESBL), MHBII, 35° C. 18 hr, read-out: Minimal Inhibitory Concentration
How it was run: as §1

[8] = system: E. coli GC 5901 (TEM-1 and SHV-8); details: Escherichia coli, β-lactamase class A, A (ESBL), MHBII, 35° C. 18 hr, read-out: Minimal Inhibitory Concentration
How it was run: as §1

[9] = system: K. pn GC 2391 (pl 5.4; 5.6; 7.6; 8.7 B-lactamases); details: Klebsiella pneumoniae, β-lactamase class A, A (ESBL), C (presumed), MHBII, 35° C. 18 hr, read-out: Minimal Inhibitory Concentration
How it was run: as §1

[10] = system: K. pneumoniae GC 7823 Fox 5; details: Klebsiella pneumoniae, GC7823FOX5, β-lactamase class C, MHBII, 35° C. 18 hr, read-out: Minimal Inhibitory Concentration
How it was run: as §1

[11] = system: A. baumannii GC 7685 TEM-1; details: Acinetobacter baumannii, GC7685TEM1, 18 h, read-out: Minimal Inhibitory Concentration
How it was run: as §1

[12] = system: M. morganii GC 1617 TEM-10 + inducible AmpC; details: Morganella morganii, β-lactamase class A (ESBL), C, MHBII, 35° C. 18 hr, read-out: Minimal Inhibitory Concentration
How it was run: as §1

[13] = system: K. pn GC 1507 (TEM-9 + SHV-1); details: Klebsiella pneumoniae, β-lactamase class A, A (ESBL), MHBII, 35° C. 18 hr, read-out: Minimal Inhibitory Concentration
How it was run: as §1

E. coli GC 2894 (AmpC) = details: Escherichia coli, β-lactamase class C, MHBII, 35° C. 18 hr, read-out: Minimal Inhibitory Concentration
How it was run: as §1

[14] = system: E. cloacae GC 1712 AmpC-inducible; details: Enterobacter cloacae, β-lactamase class C, MHBII, 35° C. 18 hr, read-out: Minimal Inhibitory Concentration
How it was run: as §1

[15] = system: E. coli GC 2295 TEM-1 + AmpC; details: Escherichia coli, β-lactamase class A, C, MHBII, 35° C. 18 hr, read-out: Minimal Inhibitory Concentration
How it was run: as §1

[16] = system: S. marcescens GC 4132 (AmpC); details: Serratia marcescens, β-lactamase class C, MHBII, 35° C. 18 hr, read-out: Minimal Inhibitory Concentration
How it was run: as §1

[17] = system: E. aerogenes 1697-MP GC 7845 AmpC; details: Klebsiella aerogenes; E. aerogenes GC 7845; β-lactamase class C; MHBII, 35° C. 18 hr; read-out: Minimal Inhibitory Concentration
How it was run: as §1

E. coli GC 1807 OXA-7 = details: Escherichia coli, GC1807OXA7, β-lactamase class D, MHBII, 35° C. 18 hr, read-out: Minimal Inhibitory Concentration
How it was run: as §1

[18] = system: E. cloacae GC 1477 (AmpC); details: Enterobacter cloacae, β-lactamase class C, MHBII, 35° C. 18 hr, read-out: Minimal Inhibitory Concentration
How it was run: as §1

[19] = system: K. pn GC 6657 (TEM-1 + SHV-27); details: Klebsiella pneumoniae, β-lactamase class A, A (ESBL), MHBII, 35° C. 18 hr, read-out: Minimal Inhibitory Concentration
How it was run: as §1

[20] = system: K. pneumoniae GC 2826 Act 1 + 3 additional; details: Klebsiella pneumoniae, β-lactamase class A, A (ESBL), C, MHBII, 35° C. 18 hr, read-out: Minimal Inhibitory Concentration
How it was run: as §1

SMILES: CO/N=C(\C(=O)N[C@@H]1C(=O)N2C(C(=O)[O-])=C(C[N+]3(C)CCCC3)CS[C@H]12)c1csc(N)n1 [Cefepime]
- MIC [1]: 0.06 µg/mL (≈ 0.125 µM)
- MIC [2]: 4 µg/mL
- MIC (E. coli GC 6539 CMY-2): 2 µg/mL (≈ 4.16 µM)
- MIC [3]: > 16 µg/mL
- MIC [4]: 16 µg/mL (≈ 33.3 µM)
- MIC [5]: 8 µg/mL (≈ 16.6 µM)
- MIC (E. coli GC 2805 (CcrA)): > 16 µg/mL
- MIC (E. coli GC 2300 (TEM-28)): > 16 µg/mL
- MIC [6]: 0.5 µg/mL (≈ 1.04 µM)
- MIC [7]: > 16 µg/mL
- MIC [8]: > 16 µg/mL
- MIC [9]: 8 µg/mL (≈ 16.6 µM)
- MIC [10]: 1 µg/mL (≈ 2.08 µM)
- MIC [11]: > 16 µg/mL
- MIC [12]: 0.25 µg/mL (≈ 0.52 µM)
- MIC [13]: 8 µg/mL (≈ 16.6 µM)
- MIC (E. coli GC 2894 (AmpC)): 2 µg/mL (≈ 4.16 µM)
- MIC [14]: 0.25 µg/mL (≈ 0.52 µM)
- MIC [15]: 0.5 µg/mL (≈ 1.04 µM)
- MIC [16]: 0.5 µg/mL (≈ 1.04 µM)
- MIC [17]: 0.5 µg/mL (≈ 1.04 µM)
- MIC (E. coli GC 1807 OXA-7): 0.12 µg/mL (≈ 0.25 µM)
- MIC [18]: 4 µg/mL (≈ 8.32 µM)
- MIC [19]: 0.12 µg/mL (≈ 0.25 µM)
- MIC [20]: 8 µg/mL (≈ 16.6 µM)
